Results reported in patent publication US5747235A, “Silver halide light sensitive emulsion layer having enhanced photographic sensitivity” (Eastman Kodak Company, priority 1996, dated 1998).

Experiments:
[1] = fragmentation rate constant kfr by laser flash photolysis; type: physicochemical; conditions: Table B; CH3CN/H2O (4:1)
Excerpt: The kinetics of the bond cleavage or fragmentation reaction can be measured by conventional laser flash photolysis. […] The specific experimental apparatus we used to measure fragmentation rate constants and radical oxidation potentials is described in detail below.
(b) Fragmentation Rate Constant Determination
These absorptions were used to determine the kinetics of the fragmentation reactions of the radical cations of the X-Y. Excitation of 9,10-dicyanoanthracene (DCA) in the presence of biphenyl and the X-Y donor, as described above, results in the formation of the DCA^.cndot.- and the X-Y^.cndot.+. By using a concentration of X-Y of ca. 10^-2 M, the X-Y^.cndot.+ can be formed within ca. 20 ns of the laser pulse. […] The monitoring wavelengths used were somewhat different for the different donors, but were mostly around 470-530 nm. […] Alternatively, when the decay rate of the X-Y^.cndot.+ was less than 10^6 s^-1, the solutions were purged with oxygen.
The experiments measuring the fragmentation rate constants were performed in acetonitrile with the addition of 20% water, so that all of the salts could be easily solubilized. Most experiments were performed at room temperature. […] When this happened, the fragmentation rate constants were measured as a function of temperature, and the rate constant at room temperature determined by extrapolation.

[2] = oxidation potential E1 by cyclic voltammetry; type: physicochemical; conditions: Table A; 80%/20% acetonitrile/water, 0.1M lithium perchlorate, 25° C.
Procedure: Oxidation potentials are well known and can be found, for example, in "Encyclopedia of Electrochemistry of the Elements", Organic Section, Volumes XI-XV, A. Bard and H. Lund (Editors) Marcel Dekker Inc., NY. (1984). E1 can be measured by the technique of cyclic voltammetry. In this technique, the electron donating compound is dissolved in a solution of 80%/20% by volume acetonitrile to water containing 0.1M lithium perchlorate. Oxygen is removed from the solution by passing nitrogen gas through the solution for 10 minutes prior to measurement. A glassy carbon disk is used for the working electrode, a platinum wire is used for the counter electrode, and a saturated calomel electrode (SCE) is used for the reference electrode. Measurement is conducted at 25° C. using a potential sweep rate of 0.1 V/sec. The oxidation potential vs. SCE is taken as the peak potential of the cyclic voltammetric wave.

[3] = oxidation potential E2 of radical X by laser flash photolysis; type: physicochemical; conditions: Table C; by parent XY compound; < = more negative than
Excerpt: In this technique, the compound X-Y is oxidized by an electron transfer reaction initiated by a short laser pulse. The oxidized form of X-Y then undergoes the bond cleavage reaction to give the radical X^.cndot.. X^.cndot. is then allowed to interact with various electron acceptor compounds of known reduction potential. […] The experimental details are set forth more fully below. The oxidation potentials (E2) for radicals X^.cndot. for typical compounds useful in accordance with our invention are given in Table C. Where only limits on potentials could be determined, the following notation is used: <-0.90 V should be read as "more negative than -0.90 V" and >-0.40 V should be read as "less negative than -0.40 V".
(a) Oxidation Potential of Radical X.cndot.
The laser flash photolysis measurements were performed using a nanosecond pulsed excimer (Questek model 2620, 308 nm, ca. 20 ns, ca. 100 mJ) pumped dye laser (Lambda Physik model FL 3002). The laser dye was DPS (commercially available from Exciton Co.) in p-dioxane (410 nm, ca. 20 ns, ca. 10 mJ). The analyzing light source was a pulsed 150W xenon arc lamp (Osram XBO 150/W). The arc lamp power supply was a PRA model 302 and the pulser was a PRA model M-306. The pulser increased the light output by ca. 100 fold, for a time period of ca. 2-3 ms. The analyzing light was focussed through a small aperture (ca. 1.5 mm) in a cell holder designed to hold 1 cm^2 cuvettes. The laser and analyzing beams irradiated the cell from opposite directions and crossed at a narrow angle (ca. 15°). After leaving the cell, the analyzing light was collimated and focussed onto the slit (1 mm, 4 nm bandpass) of an ISA H-20 monochromator. The light was detected using 5 dynodes of a Hamamatsu model R446 photomultiplier. The output of the photomultiplier tube was terminated into 50 ohm, and captured using a Tektronix DSA-602 digital oscilloscope. The entire experiment is controlled from a personal computer.
The experiments were performed either in acetonitrile, or a mixture of 80% acetonitrile and 20% water. The first singlet excited state of a cyanoanthracene (A), which acted as the electron acceptor, was produced using the nanosecond laser pulse at 410 nm. […] Secondary electron transfer then occurred between B^.cndot.+ and the lower oxidation potential electron donor X-Y, to generate X-Y^.cndot.+ in high yield. For the investigations of the oxidation potentials of the radicals X^.cndot., typically the cyanoanthrancene concentration was ca. 2×10^-5 M to 10^-4 M the biphenyl concentration was ca. 0.1M. The concentration of the X-Y donor was ca. 10^-3 M. The rates of the electron transfer reactions are determined by the concentrations of the substrates. The concentrations used ensured that the A^.cndot.- and the X-Y^.cndot.+ were generated within 100 ns of the laser pulse. The radical ions could be observed directly by means of their visible absorption spectra. The kinetics of the photogenerated radical ions were monitored by observation of the changes in optical density at the appropriate wavelengths.
The reduction potential (Ered) of 9,10-dicyanoanthracene (DCA) is -0.91 V. In a typical experiment, DCA is excited and the initial photo-induced electron transfer from the biphenyl (B) to the DCA forms a DCA^.cndot.-, which is observed at its characteristic absorption maximum (λobs =705 nm), within ca. 20 ns of the laser pulse. Rapid secondary electron transfer occurs from X-Y to B^.cndot.+ to generate X-Y^.cndot.+, which fragments to give X^.cndot.. A growth in absorption is then observed at 705 nm with a time constant of ca. 1 microsecond, due to reduction of a second DCA by the X^.cndot.. The absorption signal with the microsecond growth time is equal to the size of the absorption signal formed within 20 ns.
If the oxidation potential of X^.cndot. is not sufficiently negative to reduce DCA, an estimate of its oxidation potential was obtained by using other cyanoanthracenes as acceptors. […]

[4] = Example 7: photographic speed and fog with/without HB3, 365 nm exposure, emulsion T-2; conditions: emulsions containing red or blue sensitizing dye and electron donor
Procedure: (§1) For photographic evaluation, each of the coating strips was exposed for 0.1 sec to a 365 nm emission line of a Hg lamp filtered through a Kodak Wratten filter number 18A and a step wedge ranging in density from 0 to 4 density units in 0.2 density steps. The exposed film strips were developed for 6 min in Kodak Rapid X-ray Developer (KRX). S365, relative sensitivity at 365 nm, was evaluated at a density of 0.2 units above fog.
An AgBrI tabular silver halide emulsion (Emulsion T-2) was prepared containing 4.05% total I distributed such that the central portion of the emulsion grains contained 1.5% I and the perimeter area contained substantially higher I, as described by Chang et. al., U.S. Pat. No. 5,314,793. […] This emulsion was precipitated using deionized gelatin. The emulsion was sulfur sensitized by adding 8.5×10^-6 mole 1,3-dicarboxymethyl-1,3-dimethyl-2-thiourea /mole Ag at 40° C.; the temperature was then raised to 60° C. at a rate of 5° C./3 min and the emulsions held for 20 min before cooling to 40° C. The chemically sensitized emulsion was then used to prepare coatings containing the fragmentable two-electron donor compounds. […] Where present, the blue sensitizing dye D-I or the red sensitizing dye D-II were added from methanol solution to the emulsion at 40° C. after the chemical sensitization and disulfocatechol addition. The fragmentable two-electron donor compounds were added to the emulsion at 40° C. and the coatings were prepared and tested as described in Example 1, except that the additional gelatin used to prepare the coatings described in Table III was deionized gelatin.
Where present the blue sensitizing dye D-I or the red sensitizing dye D-II were added from methanol solution to the emulsion at 40° C. after the chemical sensitization and disulfocatechol addition. The fragmentable two-electron donating compounds were then added to the emulsion and coatings prepared as described in Example 1, except that the additional gelatin used to prepare the coatings described in Table VII was deionized gelatin. The coatings were tested for their response to a 365 nm exposure as described in Example 1.

[5] = Example 9: photographic speed and fog, 365 nm exposure, red dyed emulsion T-2; conditions: for Fog / S365: dye II 0.86 x10^-3; for S365: undyed control=100, dyed control 62
Procedure: as §1
An AgBrI tabular silver halide emulsion (Emulsion T-2) was prepared containing 4.05% total I distributed such that the central portion of the emulsion grains contained 1.5% I and the perimeter area contained substantially higher I, as described by Chang et. al., U.S. Pat. No. 5,314,793. […] This emulsion was precipitated using deionized gelatin. The emulsion was sulfur sensitized by adding 8.5×10^-6 mole 1,3-dicarboxymethyl-1,3-dimethyl-2-thiourea /mole Ag at 40° C.; the temperature was then raised to 60° C. at a rate of 5° C./3 min and the emulsions held for 20 min before cooling to 40° C. The chemically sensitized emulsion was then used to prepare coatings containing the fragmentable two-electron donor compounds. All of the experimental coating variations in Table III contained the hydroxybenzene 2,4-disulfocatechol (HB3) at a concentration of 13 mmole/ mole Ag, added to the melt before the addition of any further addenda. Where present, the blue sensitizing dye D-I or the red sensitizing dye D-II were added from methanol solution to the emulsion at 40° C. after the chemical sensitization and disulfocatechol addition. The fragmentable two-electron donor compounds were added to the emulsion at 40° C. and the coatings were prepared and tested as described in Example 1, except that the additional gelatin used to prepare the coatings described in Table III was deionized gelatin.
The sulfur sensitized AgBrI tabular emulsion T-2 as described in Example 3 was used to prepare coatings of the fragmentable two-electron donors S-15, S-14, S-13, and S-11, as described in Table IX. All of the experimental coating variations in Table IX contained the hydroxybenzene, 2,4-disulfocatechcol (HB3) at a concentration of 13 mmole/mole Ag, added to the melt before any further addenda. Where present, the red sensitizing dye D-II was added from methanol solution to the emulsion at 40° C. after the chemical sensitization and disulfocatechol addition. The fragmentable two-electron donor compounds were then added to the emulsion and coatings prepared and tested as described in Example I, except that the additional gelatin used to prepare the coatings described in Table IX was deionized gelatin.

Molecule | kfr, Rate Constants for Decarboxylation of Radical Cations [1] | Oxidation Potential of X--Y, E1 [2] [V vs SCE] | Oxidation Potentials of Radicals (X*), E2 [3] [V] | further results
CC(C(=O)O)N(CC(=O)O)c1ccccc1 (stereo not drawn) [Compound 14] | > 2e+07 s⁻¹ | 0.50 | < -0.9 | 
COc1ccc(N(CC(=O)O)C(C)C(=O)O)cc1 (stereo not drawn) [Compound 15] | 90000 s⁻¹ | 0.36 | < -0.9 | 
Cc1ccc(N(CC(=O)O)C(C)C(=O)O)cc1 (stereo not drawn) [Compound 20] | 8.1e+06 s⁻¹ | 0.46 | < -0.9 | 
Cc1ccc(NC(CC(=O)O)C(=O)O)cc1 (stereo not drawn) [Compound 29] | 5.4e+06 s⁻¹ | 0.52 | < -0.9 | 
CCCCN(c1ccc(OC)cc1)C(C)C(=O)O (stereo not drawn) [Compound 36] | 1.1e+06 s⁻¹ | 0.22 | < -0.9 | 
Cn1cc(C(C)(C)C(=O)O)c2ccccc21 [Compound 44] | 530000 s⁻¹ | 0.64 | -0.81 | 
Cc1ccc(NC(C)C(=O)O)cc1 (stereo not drawn) [Compound 54] | 1.4e+07 s⁻¹ | 0.44 | < -0.9 | 
O=C(O)C(O)c1c2ccccc2cc2ccccc12 (stereo not drawn) [Compound 56] | 120000 s⁻¹ | 0.65 | < -0.9 | 
CC(C(=O)O)N1c2ccccc2Sc2ccccc21 (stereo not drawn) [Compound 57] | ca. 1 × 10^5 s^-1 | 0.49 | < -0.9 | 
O=S(=O)(O)c1cc(O)c(O)c(S(=O)(=O)O)c1 [HB3, 2,4-disulfocatechol, reference compound] |  |  |  | effect on fog [4]: the level of fog can be lowered
N-(4-Carboxyethylphenyl)-N-(2-thioethyl-ethyl)alanine sodium salt [Compound S-15] |  |  |  | Fog ([5]; 0.007 x10^-3 mol/mol Ag): 0.13; S365 ([5]; 0.007 x10^-3 mol/mol Ag): 95; Fog ([5]; 0.022 x10^-3 mol/mol Ag): 0.23; S365 ([5]; 0.022 x10^-3 mol/mol Ag): 105; 365 nm sensitivity of dyed emulsion ([5]; dye D-II): restored to that of the undyed emulsion
